Article PMC11903766, “A structure-based framework for selective inhibitor design and optimization” (Communications Biology, 2025)
Where two headings read alike, the source gives them in different places.

What was measured:
PARP1 [1] = target: T1, PARP1 (Homo sapiens, UniProt P09874); assay: biochemical; parameters: PARP1 ELISA on histone-coated plates with NAD+, anti-PAR antibody, HRP chemiluminescence
Protocol: (§1) S53 Biological Assay Methods PARP1 inhibitory activity assay. The histone coated 384-well plates were prepared by adding 25 µL histone solution to each well and incubating overnight at 4°C. Prepared PBST buffer, blocking buffer, and assay buffer. Washed the histone coated 384-well plate 3 times using PBST buffer solution. It was blocked with 50 µL blocking buffer at room temperature for 1 h. The plate was washed 3 times using PBST buffer. 2000x compounds were prepared in the source plate, and 50nl compound were transferred from the source plate to the 96-well intermediate plate with 19.95ul assay buffer, shaken, and centrifuged at 1000rpm for 1 min. 5 µL DMSO/compound was then transferred to each well. The PARP1 and DNA mixture was incubated for 10 min at 25°C, followed by the addition of 10 µL PARP1 and DNA (except min control), incubated with the compound for 10 min at RT, and 10 μL DNA was added to the minimal control of assay plate. Added 10 µL of 2.5x NAD+ to each well and incubated for 60 min at 25°C. The plate was washed 3 times with PBST buffer and then assayed. Added 20 µL of anti-Poly/Mono-ADP Ribose Rabbit mAb. […] Read chemiluminescence on Envision immediately after adding 25 µL of Femto-ECL Substrate A and Femto-ECL Substrate B (1:1) mix. The IC50 values were calculated by analyzing the concentration-response curves. […]

PARP2 [2] = target: T2, PARP2 (Homo sapiens, UniProt Q9UGN5); assay: biochemical; parameters: PARP2 ELISA on histone-coated plates with biotin-NAD+, streptavidin-HRP chemiluminescence
Protocol: (§2) S54 PARP2 inhibitory activity assay. The histone coated 384-well plates were prepared by adding 25 µL histone solution to each well and incubating overnight at 4°C. Prepared PBST buffer, blocking buffer, and assay buffer. Washed the histone coated 384-well plate 3 times using PBST buffer solution. It was blocked with 50 µL blocking buffer at room temperature for 1 h. The plate was washed 3 times using PBST buffer. 2000x compounds were prepared in the source plate, and 50nl compound were transferred from the source plate to the 96-well intermediate plate with 19.95ul assay buffer, shaken, and centrifuged at 1000rpm for 1 min. 5 µL DMSO/compound was then transferred to each well. The PARP2 mixture was incubated for 10 min at 25°C, followed by the addition of 10 µL PARP2 (except min control), incubated with the compound for 10 min at RT, and 10 µL assay buffer was added to the minimal control of assay plate. Added 10 µL of 2.5x Biotin-NAD+ to each well and incubated for 90 min at 25°C. The plate was washed 3 times with PBST buffer and then assayed. Added 25 µL of Stre-HRP. Incubated for 1 h at RT and washed the plate 3 times with PBST buffer. Read chemiluminescence on Envision immediately after adding 25 µL of Femto-ECL Substrate A and Femto-ECL Substrate B (1:1) mix. The IC50 values were calculated by analyzing the concentration-response curves.

PARP2 [3] = target: T2, PARP2; assay: biochemical; parameters: PARP2 ELISA on histone-coated plates, biotin-NAD+, streptavidin-HRP, chemiluminescence
Protocol: as §2

PARP2 [4] = target: T2, PARP2; parameters: PARP2 ELISA on histone-coated plates, biotin-NAD+, streptavidin-HRP, chemiluminescence; details: inhibitor
Protocol: as §2

PARP1 [5] = target: T1, PARP1; assay: biochemical; parameters: PARP1 ELISA on histone-coated plates, NAD+, anti-PAR antibody with HRP, chemiluminescence
Protocol: S53 Biological Assay Methods PARP1 inhibitory activity assay. The histone coated 384-well plates were prepared by adding 25 µL histone solution to each well and incubating overnight at 4°C. Prepared PBST buffer, blocking buffer, and assay buffer. Washed the histone coated 384-well plate 3 times using PBST buffer solution. It was blocked with 50 µL blocking buffer at room temperature for 1 h. The plate was washed 3 times using PBST buffer. 2000x compounds were prepared in the source plate, and 50nl compound were transferred from the source plate to the 96-well intermediate plate with 19.95ul assay buffer, shaken, and centrifuged at 1000rpm for 1 min. 5 µL DMSO/compound was then transferred to each well. The PARP1 and DNA mixture was incubated for 10 min at 25°C, followed by the addition of 10 µL PARP1 and DNA (except min control), incubated with the compound for 10 min at RT, and 10 μL DNA was added to the minimal control of assay plate. Added 10 µL of 2.5x NAD+ to each well and incubated for 60 min at 25°C. The plate was washed 3 times with PBST buffer and then assayed. Added 20 µL of anti-Poly/Mono-ADP Ribose Rabbit mAb. Incubated for 1.5 h at RT and washed the plate 3 times with PBST buffer. Then added, 20 µL of diluted (1:2000 in Blocking buffer) anti-rabbit IgG, HRP-linked Antibody. Incubated for 1 h at RT and washed the plate 3 times using PBST buffer. Read chemiluminescence on Envision immediately after adding 25 µL of Femto-ECL Substrate A and Femto-ECL Substrate B (1:1) mix. The IC50 values were calculated by analyzing the concentration-response curves. Fit the data to obtain inhibition values using equation (1) Equation (1): inh %=( Max-Signal)/ (Max-Min)*100 Fit the data to obtain IC50 values using equation (2) Equation (2): Y=Bottom + (Top-Bottom)/(1+(IC50/X)[…]) Y is %inhibition and X is compound concentration.

PARP1 [6] = target: T1, PARP1; parameters: PARP1 ELISA on histone-coated plates, NAD+, anti-PAR antibody with HRP, chemiluminescence; details: inhibitor
Protocol: as §1

PARP1 [7] = target: T1, PARP1; assay: ELISA enzyme inhibition assay; format: biochemical; details: read-out: PARP1 Enzyme / IC50 (nM)^b
PARP2 [8] = target: T2, PARP2; assay: ELISA enzyme inhibition assay; format: biochemical; details: read-out: PARP2 Enzyme / IC50 (nM)^b

T2 sequence (Q9UGN5 whole entry): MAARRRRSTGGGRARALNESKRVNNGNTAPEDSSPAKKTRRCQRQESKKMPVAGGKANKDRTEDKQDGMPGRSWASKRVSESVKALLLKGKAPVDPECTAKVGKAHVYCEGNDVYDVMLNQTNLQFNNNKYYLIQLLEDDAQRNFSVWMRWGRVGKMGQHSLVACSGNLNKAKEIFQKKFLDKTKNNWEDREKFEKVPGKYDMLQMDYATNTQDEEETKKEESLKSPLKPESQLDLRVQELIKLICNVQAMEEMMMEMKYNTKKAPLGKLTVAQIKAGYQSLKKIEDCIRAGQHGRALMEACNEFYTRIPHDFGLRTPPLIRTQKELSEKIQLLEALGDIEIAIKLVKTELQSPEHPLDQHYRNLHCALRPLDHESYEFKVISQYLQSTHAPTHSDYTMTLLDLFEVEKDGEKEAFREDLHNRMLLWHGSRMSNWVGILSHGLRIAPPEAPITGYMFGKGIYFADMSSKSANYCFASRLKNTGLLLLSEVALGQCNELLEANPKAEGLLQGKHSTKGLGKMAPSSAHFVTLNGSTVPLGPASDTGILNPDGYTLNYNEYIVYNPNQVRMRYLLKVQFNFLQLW
T1 sequence (P09874 2-1014): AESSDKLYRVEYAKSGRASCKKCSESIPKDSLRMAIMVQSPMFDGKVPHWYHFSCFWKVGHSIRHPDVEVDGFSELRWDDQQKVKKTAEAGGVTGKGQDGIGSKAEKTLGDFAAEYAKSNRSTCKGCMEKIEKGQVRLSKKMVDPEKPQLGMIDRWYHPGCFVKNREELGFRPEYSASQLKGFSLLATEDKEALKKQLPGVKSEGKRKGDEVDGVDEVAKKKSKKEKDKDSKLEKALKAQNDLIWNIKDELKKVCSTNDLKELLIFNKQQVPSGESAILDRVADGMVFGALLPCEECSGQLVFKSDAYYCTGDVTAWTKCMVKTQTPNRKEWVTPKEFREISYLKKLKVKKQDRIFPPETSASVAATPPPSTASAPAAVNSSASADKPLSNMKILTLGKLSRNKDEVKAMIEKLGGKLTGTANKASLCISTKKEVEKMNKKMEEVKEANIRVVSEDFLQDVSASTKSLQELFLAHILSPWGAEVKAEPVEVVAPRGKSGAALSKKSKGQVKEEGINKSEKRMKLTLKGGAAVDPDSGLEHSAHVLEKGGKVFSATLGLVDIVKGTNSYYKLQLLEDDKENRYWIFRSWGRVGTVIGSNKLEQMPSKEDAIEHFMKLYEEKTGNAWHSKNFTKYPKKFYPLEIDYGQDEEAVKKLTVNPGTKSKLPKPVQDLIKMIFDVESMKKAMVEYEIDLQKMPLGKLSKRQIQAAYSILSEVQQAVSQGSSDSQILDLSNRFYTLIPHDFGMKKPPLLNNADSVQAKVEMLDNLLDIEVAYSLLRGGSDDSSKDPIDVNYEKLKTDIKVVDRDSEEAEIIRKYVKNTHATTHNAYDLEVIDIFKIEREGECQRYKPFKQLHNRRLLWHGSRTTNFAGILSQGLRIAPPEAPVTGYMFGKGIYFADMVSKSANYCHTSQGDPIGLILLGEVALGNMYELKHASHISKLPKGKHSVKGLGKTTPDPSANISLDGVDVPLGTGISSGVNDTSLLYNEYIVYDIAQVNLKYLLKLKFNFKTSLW

Compound: CNC(=O)c1ccc(N2CCN(Cc3ccnc(-c4c[nH]c(=O)c(C)c4)n3)CC2)cn1 [R1]
- IC50 (PARP1 [1]): 3370 nM
- IC50 (PARP2 [2]): 255 nM

Compound: O=C(c1ccc(C(F)(F)F)c(=O)[nH]1)N1CCN(c2ccc3cc[nH]c3c2)CC1 [Z5]
- inhibition at 0.01 µM (PARP2 [3]): -0.8%
- IC50 (PARP2 [4]): > 10000 nM
- inhibition at 0.01 µM (PARP1 [5]): 7.3%
- inhibition at 10 µM (PARP1 [5]): 12.7%
- IC50 (PARP1 [6]): > 10000 nM

Compound: CCn1c(=O)[nH]c2sc(CN3CCN(c4ccc(C(=O)NC)nc4)CC3)c(C)c2c1=O [Y4]
- inhibition at 0.01 µM (PARP2 [3]): -1.6%
- inhibition at 0.01 µM (PARP1 [5]): 20.7%
- inhibition at 10 µM (PARP1 [5]): 99%
- IC50 (PARP1 [7]): 86.5 nM
- IC50 (PARP2 [8]): 741 nM

Compound: CNC(=O)c1ccc(N2CCN(CC#Cc3cccc4cn[nH]c34)CC2)cn1 [Y2]
- inhibition at 0.01 µM (PARP2 [3]): 2.3%
- IC50 (PARP2 [4]): > 10000 nM
- inhibition at 0.01 µM (PARP1 [5]): -0.1%
- inhibition at 10 µM (PARP1 [5]): 47.4%
- IC50 (PARP1 [6]): 9800 nM

Compound: CCNC(=O)Nc1cc(CN2CCN(c3ccc(C(=O)NC)nc3)CC2)c2ccccc2n1 [Y6]
- inhibition at 0.01 µM (PARP2 [3]): 87.6%
- inhibition at 0.01 µM (PARP1 [5]): 70.5%
- inhibition at 10 µM (PARP1 [5]): 99.1%
- IC50 (PARP1 [7]): 6 nM
- IC50 (PARP2 [8]): 2.4 nM

Compound: CNC(=O)c1ccc(N2CCN(Cc3ccc4c(c3)[nH]c3ncccc34)CC2)cn1 [Y5]
- inhibition at 0.01 µM (PARP2 [3]): 1.4%
- IC50 (PARP2 [4]): > 10000 nM
- inhibition at 0.01 µM (PARP1 [5]): 46%
- inhibition at 10 µM (PARP1 [5]): 98.8%
- IC50 (PARP1 [7]): 12.7 nM
